Experimental data as given in ChEMBL document CHEMBL5537195, “Novel Covalent Probe Selectively Targeting Glutathione Peroxidase 4 In Vivo: Potential Applications in Pancreatic Cancer Therapy” (J Med Chem, 2024).
pIC50: −log10 of the molar value. Activity calls are given as the source filed them.

How the values were obtained:
Capan-2 = assay: Antiproliferative activity against human Capan-2 cells assessed as inhibition of cell growth incubated for 72 hrs by CCK-8 assay; type: functional, cell-based
[1] = biological target: T1, Phospholipid hydroperoxide glutathione peroxidase GPX4 (Homo sapiens) (UniProt P36969); assay: Binding affinity to GPX4 in human ASPC1 cells at 0.2 uM by SDS-PAGE analysis; type: cell-based; details: time 0.1 hrs, TDE = time-dependent effect
T1 sequence (whole entry): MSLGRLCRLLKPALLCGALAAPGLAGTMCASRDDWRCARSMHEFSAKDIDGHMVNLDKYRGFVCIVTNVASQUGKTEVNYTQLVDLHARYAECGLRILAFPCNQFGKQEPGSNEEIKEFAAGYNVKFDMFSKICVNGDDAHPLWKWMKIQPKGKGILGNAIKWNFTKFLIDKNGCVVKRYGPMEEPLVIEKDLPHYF

Homo sapiens = species: Homo sapiens; assay: Binding affinity to GPX4 U46C mutant (unknown origin) incubated for 1 hr by pull-down based Western blot analysis; details: dose 0.2-5 µM
[2] = Toxicity in NOD-SCID mouse xenografted with human ASPC1 cells assessed as mortality at 10 mg/kg, ip administered for once daily for 14 days; type: organism-based; details: in vivo, 336 h, time 14 day
ASPC1 [3] = assay: Induction of ferroptosis in human ASPC1 cells assessed as effect on ROS level at 1 uM incubated for 3 hrs in absence of […]; type: functional, cell-based
ASPC1 [4] = assay: Induction of ferroptosis in human ASPC1 cells assessed as reduction in cell viability incubated for 72 hrs by CCK-8 assay; type: functional, cell-based; details: ASPC1, 72 h
ASPC1 [5] = assay: Induction of ferroptosis in human ASPC1 cells assessed as cell death at 2 uM in presence of Necrostatin-1; type: functional, cell-based
[6] = biological target: T1, Phospholipid hydroperoxide glutathione peroxidase GPX4 (Homo sapiens); assay: Binding affinity to GPX4 in human HPAC cells at 0.2 uM incubated for 1 hr by SDS-PAGE analysis; type: cell-based
[7] = biological target: T1, Phospholipid hydroperoxide glutathione peroxidase GPX4 (Homo sapiens); assay: Binding affinity to GPX4 in human MIA PaCa-2 cells at 0.2 uM incubated for 1 hr by SDS-PAGE analysis; type: cell-based
Mus musculus = assay: In vivo target engagement at GPX4 in SCID mouse at 10 mg/kg, ip qd administered for 14 days and measured after 2 hrs by pull-down based Western blot analysis; type: functional, organism-based; details: time 14.0 day
HCT-116 = assay: Induction of ferroptosis in human HCT-116 cells assessed as reduction in cell viability incubated for 72 hrs by CCK-8 assay; type: functional, cell-based; details: HCT-116, 72 h
[8] = Cmax in Sprague-Dawley rat at 2 mg/kg, iv measured upto 48 hrs by LC-MS/MS analysis; type: ADME, organism-based; details: in vivo
[9] = biological target: T1, Phospholipid hydroperoxide glutathione peroxidase GPX4 (Homo sapiens); assay: Binding affinity to GPX4 in human SW1990 cells at 0.2 uM incubated for 1 hr by SDS-PAGE analysis; type: cell-based
[10] = biological target: T1, Phospholipid hydroperoxide glutathione peroxidase GPX4 (Homo sapiens); assay: Competitive binding affinity to GPX4 in human ASPC1 cells at 0.2 uM incubated for 1 hr in presence of ML162; type: cell-based
ASPC1 [11] = assay: Induction of ferroptosis in human ASPC1 cells assessed as reduction in cell viability incubated for 48 hrs followed by compound washout by CCK-8 assay; type: functional, cell-based; details: ASPC1, 48 h
ASPC1 [12] = assay: Induction of apoptosis in human ASPC1 cells at 20 to 200 nM incubated for 48 hrs by FITC based flow cytometry analysis; type: functional, cell-based; details: dose 20-200 nM
MIA PaCa-2 = assay: Antiproliferative activity against human MIA PaCa-2 cells assessed as inhibition of cell growth incubated for 72 hrs by CCK-8 assay; type: functional, cell-based; details: MIA PaCa-2, 72 h
CFPAC-1 = assay: Antiproliferative activity against human CFPAC-1 cells assessed as inhibition of cell growth incubated for 72 hrs by CCK-8 assay; type: functional, cell-based; details: CFPAC-1, 72 h
[13] = biological target: T2, Fructose-bisphosphate aldolase A (Homo sapiens) (UniProt P04075); assay: Binding affinity to ALDOA in human ASPC1 cells at 1 uM incubated for 5 hrs by Western blot analysis; type: cell-based
T2 sequence (whole entry): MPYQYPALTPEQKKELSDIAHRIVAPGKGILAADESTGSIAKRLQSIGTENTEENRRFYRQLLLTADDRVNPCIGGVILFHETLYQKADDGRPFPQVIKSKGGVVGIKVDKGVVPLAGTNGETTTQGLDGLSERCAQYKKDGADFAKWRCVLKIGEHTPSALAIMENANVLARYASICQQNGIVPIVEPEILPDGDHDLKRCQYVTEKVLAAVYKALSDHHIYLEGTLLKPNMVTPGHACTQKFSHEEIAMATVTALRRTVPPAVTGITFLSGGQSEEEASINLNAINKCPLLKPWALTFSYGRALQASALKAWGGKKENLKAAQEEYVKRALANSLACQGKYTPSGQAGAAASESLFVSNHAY

ASPC1 [14] = assay: Induction of ferroptosis in human ASPC1 cells assessed as cell death at 2 uM in presence of Ferrostatin-1; type: functional, cell-based
[15] = biological target: T1, Phospholipid hydroperoxide glutathione peroxidase GPX4 (Homo sapiens); assay: Competitive binding affinity to GPX4 in human ASPC1 cells at 0.2 uM incubated for 1 hr in presence of 4-(((4-(benzo[d]thiazol-2-yl)phenyl)(methyl)amino)methyl)-N-ethynyl-N-methylbenzenesulfonamide by immunofluorescence based confocal microscopic analysis; type: cell-based
[16] = biological target: T1, Phospholipid hydroperoxide glutathione peroxidase GPX4 (Homo sapiens); assay: Binding affinity to GPX4 in human HPAF-II cells at 0.2 uM incubated for 1 hr by SDS-PAGE analysis; type: cell-based
ASPC1 [17] = assay: Antitumor activity against human ASPC1 cells xenografted in NOD-SCID mouse assessed as reduction in tumor weight at 10 mg/kg, ip administered for 14 days; type: functional, organism-based; details: time 14.0 day
[18] = biological target: T1, Phospholipid hydroperoxide glutathione peroxidase GPX4 (Homo sapiens); assay: Binding affinity to GPX4 in human Capan-2 cells at 0.2 uM incubated for 1 hr by SDS-PAGE analysis; type: cell-based
ASPC1 [19] = assay: Antitumor activity against human ASPC1 cells xenografted in NOD-SCID mouse assessed as reduction in tumor volume at 10 mg/kg, ip administered for 14 days; type: functional, organism-based; details: time 14.0 day
[20] = biological target: T1, Phospholipid hydroperoxide glutathione peroxidase GPX4 (Homo sapiens); assay: Binding affinity to GPX4 in human ASPC1 cells at 0.2 uM incubated for 1 hr in presence of N-ethynyl-N-methyl-4-((methyl(4(trifluoromethyl)phenyl)amino)methyl)benzenesulfonamide by SDS-PAGE analysis; type: cell-based
[21] = biological target: T1, Phospholipid hydroperoxide glutathione peroxidase GPX4 (Homo sapiens); assay: Binding affinity to GPX4 in human ASPC1 cells at 0.2 uM incubated for 1 hr by immunofluorescence based confocal microscopic analysis; type: cell-based
ASPC1 [22] = assay: Induction of ferroptosis in human ASPC1 cells assessed as decrease in intracellular GSH level at 5 uM incubated for 5 hrs in presence of […]; type: functional, cell-based
ASPC1 [23] = assay: Induction of ferroptosis in human ASPC1 cells assessed as cell death at 2 uM in presence of 3-methyladenine; type: functional, cell-based
[24] = biological target: T1, Phospholipid hydroperoxide glutathione peroxidase GPX4 (Homo sapiens); assay: Binding affinity to GPX4 in human PANC-1 cells at 0.2 uM incubated for 1 hr by SDS-PAGE analysis; type: cell-based
[25] = biological target: T1, Phospholipid hydroperoxide glutathione peroxidase GPX4 (Homo sapiens); assay: Competitive binding affinity to GPX4 in human ASPC1 cells at 0.2 uM incubated for 1 hr in presence of ML162 by immunofluorescence based confocal microscopic analysis; type: cell-based
ASPC1 [26] = assay: Antiproliferative activity against human AsPC1 cells assessed as inhibition of cell growth incubated for 72 hrs by CCK-8 assay; type: functional, cell-based; details: ASPC1, 72 h
[27] = biological target: T1, Phospholipid hydroperoxide glutathione peroxidase GPX4 (Homo sapiens); assay: Competitive binding affinity to GPX4 in human ASPC1 cells at 0.2 uM incubated for 1 hr in presence of ML210; type: cell-based

C#CCN(Cc1ccc(S(=O)(=O)N(C)C#C)cc1)c1ccc(-c2nc3ccccc3s2)cc1
7.85: pIC50 (ASPC1 [4])
active: Activity [1] Tde | Activity (Homo sapiens) | Activity (ASPC1 [3]) | Activity [6] | Activity [7] | Activity (Mus musculus) | Activity [9] | Activity [10] | Activity [13] | Activity [16] | Activity (ASPC1 [17]) | Activity (ASPC1 [19]) | Activity [20] | Activity [21] | Activity (ASPC1 [22]) | Activity [24] | Activity [27]
inactive: Activity (Capan-2) | Activity (ASPC1 [5]) | Activity (ASPC1 [12]) | Activity (ASPC1 [14]) | Activity [15] | Activity [18] | Activity (ASPC1 [23]) | Activity [25]
7.66: pIC50 (ASPC1 [26])
2250 ng/mL: Cmax [8]
7.70: pIC50 (MIA PaCa-2) | pIC50 (CFPAC-1)
< 5.00: pIC50 (HCT-116)
Non-Toxic: Activity [2]
7.48: pIC50 (ASPC1 [11])
